Data reported in patent publication US20230114728A1 (Venatorx Pharmaceuticals, Inc., priority 2019, published 2023).
In brackets after ≈: the same amount, converted by molar mass.

Key:
[1] = test system: N. gonorrhoeae WHO L; assay: Liquid broth MIC in Fastidious broth; assay type: cell-based; conditions: Neisseria gonorrhoeae; N. gonorrhoeae strain WHO L; Fastidious broth; read-out: Minimum Inhibitory Concentration, N. gonorrhoeae WHO L
Protocol: (§1) Example V: In Vitro Antibacterial Assays for N. gonorrhoeae Strains
(§2) Additional antibacterial testing of the series was performed in 8 reference strains of N. gonorrhoeae (ATCC 49226, FA1090, WHO G, WHO L, WHO K, H041, WHO Z, and WHO Q). ATCC 49226, FA1090, WHO G, and WHO L produce wild type or wild-type like PBP2. WHO K, H041, WHO Z, and WHO Q produce mosaic PBP2. Liquid broth-based assays were used for antibacterial testing of PBP inhibitors in Neisseria gonorrhoeae. Briefly, cryo-preserved bacterial cultures of clinical strains were streaked for isolation on Chocolate Agar (72 g/L (2×) GC Agar Base (BD #228950) and 2% (2×) Hemoglobin was autoclaved at 121° C. for 20 minutes to sterilize. Once cooled to ˜50° C. the 2× GC Agar Base and 2× Hemoglobin solutions are combined and 1% IsoVitaleX Enrichment (BD #211876) was added to the solution). Strains were incubated at 36° C. and 5% CO2 to allow growth of colonies, 24 hours before inoculum preparation. 2-fold serial dilutions of test compounds were conducted in a 96 well plate with a final volume of 75 μL per well at 2-fold the final desired concentration in Fastidious broth (Remel #R07664). For preparation of assay inoculum, a direct suspension was prepared by aseptically swabbing all colonies from agar plates into culture tubes containing 2 mL of fresh sterile saline. After the dilution plates were set up, direct suspensions were then diluted in a cuvette containing sterile saline and the optical density was measured at 600 nm. Inocula were diluted such that 75 μL of this culture in Fastidious broth results in a starting bacterial concentration of 5×10^5 CFU/mL when added to the dilution plates. The plates were incubated for ˜24 hours at 36° C. and 5% CO2. The MIC was read visually as the lowest concentration well with <10% bacterial growth compared to wells of full growth.

[2] = test system: N. gonorrhoeae WHO K; assay: Liquid broth MIC in Fastidious broth; assay type: cell-based; conditions: Neisseria gonorrhoeae, read-out: Minimum Inhibitory Concentration, N. gonorrhoeae WHO K
Protocol: as §1, §2

[3] = test system: N. gonorrhoeae H041; assay: Liquid broth MIC in Fastidious broth; assay type: cell-based; conditions: Neisseria gonorrhoeae, H041, read-out: Minimum Inhibitory Concentration, N. gonorrhoeae H041
Protocol: as §1, §2

[4] = test system: N. gonorrhoeae ATCC 49226; assay: Liquid broth MIC in Fastidious broth; assay type: cell-based; conditions: Neisseria gonorrhoeae, ATCC49226; N. gonorrhoeae strain ATCC 49226; Fastidious broth; read-out: Minimum Inhibitory Concentration, N. gonorrhoeae ATCC 49226
Protocol: as §1, §2

[5] = test system: N. gonorrhoeae FA1090; assay: Liquid broth MIC in Fastidious broth; assay type: cell-based; conditions: Neisseria gonorrhoeae; N. gonorrhoeae strain FA1090; Fastidious broth; read-out: Minimum Inhibitory Concentration, N. gonorrhoeae FA1090
Protocol: as §1, §2

[6] = test system: N. gonorrhoeae WHO Z; assay: Liquid broth MIC in Fastidious broth; assay type: cell-based; conditions: Neisseria gonorrhoeae, read-out: Minimum Inhibitory Concentration, N. gonorrhoeae WHO Z
Protocol: as §1, §2

[7] = test system: N. gonorrhoeae WHO G; assay: Liquid broth MIC in Fastidious broth; assay type: cell-based; conditions: Neisseria gonorrhoeae; N. gonorrhoeae strain WHO G; Fastidious broth; read-out: Minimum Inhibitory Concentration, N. gonorrhoeae WHO G
Protocol: as §1, §2

[8] = target: T1, E. coli K12 PBP3 (Escherichia coli, UniProt P0AD68); assay: biochemical; assay type: binding
T1 construct: made in house
How it was run: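 A. baumannii PBP2 (2.5 μM) and PBP3 (0.2 μM) were run in 25 mM Tris pH 8.0 buffer with Tween 20; E. coli PBP3 (1.5 μM) and N. gonorrhoeae PBP2 ([…]) in 50 mM Hepes pH 8.0 buffer.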

[9] = test system: K. pneumoniae SI-117 producing VIM-1; assay: Broth microdilution MIC in CAMHB; assay type: cell-based; conditions: Klebsiella pneumoniae, read-out: Minimum Inhibitory Concentration, K. pneumoniae SI-117
How it was run: (§3)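 CLSI microdilution; CAMHB; inoculum 2-8×10^5 CFU/mL from 3-5 h 37° C culture; 2-fold compound series; 16-20 h, 37° C; MIC = lowest well without visible growth.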

[10] = test system: E. coli 901C; assay: Broth microdilution MIC in CAMHB; assay type: cell-based; conditions: Escherichia coli; E. coli 901C (hyper-permeable); MHB; read-out: Minimum Inhibitory Concentration, E. coli 901C
How it was run: as §3

[11] = test system: A. baumannii ATCC 19606; assay: Broth microdilution MIC in CAMHB; assay type: cell-based; conditions: Acinetobacter baumannii, ATCC19606; MHB; read-out: Minimum Inhibitory Concentration, A. baumannii ATCC 19606
How it was run: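 CLSI broth microdilution in CAMHB: 2-fold compound dilutions inoculated at 2-8×10^5 CFU/mL from 3-5 h log-phase cultures. Incubated at 37 °C for 16-20 h (Enterobacteriaceae, Pseudomonas); MIC read visually as lowest concentration without growth. Strains include hyper-permeable and efflux-deficient mutants.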

[12] = test system: E. coli AG100A; assay: Broth microdilution MIC in CAMHB; assay type: cell-based; conditions: Escherichia coli, read-out: Minimum Inhibitory Concentration, E. coli AG100A
How it was run: as §3

[13] = test system: E. coli AG100; assay: Broth microdilution MIC in CAMHB; assay type: cell-based; conditions: Escherichia coli; E. coli AG100 (wild-type parent); MHB; read-out: Minimum Inhibitory Concentration, E. coli AG100
How it was run: as §3

[14] = test system: P. aeruginosa ATCC 35151; assay: Broth microdilution MIC in CAMHB; assay type: cell-based; conditions: Pseudomonas aeruginosa, ATCC35151; MHB; hyper-permeable strain; read-out: Minimum Inhibitory Concentration, P. aeruginosa ATCC 35151
How it was run: as §3

[15] = test system: E. coli ATCC 25922; assay: Broth microdilution MIC in CAMHB; assay type: cell-based; conditions: Escherichia coli, ATCC25922; E. coli ATCC 25922; MHB; read-out: Minimum Inhibitory Concentration, E. coli 25922
How it was run: as §3

[16] = test system: K. pneumoniae UMM producing SHV-5 and KPC-2; assay: Broth microdilution MIC in CAMHB; assay type: cell-based; conditions: Klebsiella pneumoniae, read-out: Minimum Inhibitory Concentration, K. pneumoniae UMM
How it was run: as §3

[17] = test system: E. coli D22; assay: Broth microdilution MIC in CAMHB; assay type: cell-based; conditions: Escherichia coli; E. coli D22 (hyper-permeable); MHB; read-out: Minimum Inhibitory Concentration, E. coli D22
How it was run: as §3

[18] = test system: P. aeruginosa (ΔmexAB-oprM); assay: Broth microdilution MIC in CAMHB; assay type: cell-based; conditions: Pseudomonas aeruginosa, read-out: Minimum Inhibitory Concentration, P. aeruginosa ΔmexAB-OprM
How it was run: as §3

[19] = test system: K. pneumoniae 848844 producing SHV-11 and KPC-2; assay: Broth microdilution MIC in CAMHB; assay type: cell-based; conditions: Klebsiella pneumoniae, read-out: Minimum Inhibitory Concentration, K. pneumoniae 848844
How it was run: as §3

[20] = test system: P. aeruginosa ATCC 27853; assay: Broth microdilution MIC in CAMHB; assay type: cell-based; conditions: Pseudomonas aeruginosa, ATCC27853; MHB; read-out: Minimum Inhibitory Concentration, P. aeruginosa ATCC 27853
How it was run: as §3

[21] = target: T2, P. aeruginosa PBP3 (Pseudomonas aeruginosa, UniProt G3XD46); assay: Bocillin-FL fluorescence polarization competition binding assay, P. aeruginosa PBP3; conditions: fluorescence polarization competition binding assay using Bocillin-FL
T2 construct: made in house
How it was run: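 Inhibitor competition with Bocillin-FL for P. aeruginosa PBP3 was followed by fluorescence polarization on a Cytation3 (BioTek) reader, using g-factor 0.96, 490 nm excitation and 520 nm emission. The enzyme was at 0.75 μM and the probe at 0.1 μM in Hepes/NaCl/glycerol buffer, 80 μl per well. FP was recorded immediately after probe addition for up to 60 minutes. Potency was expressed as EC50, the concentration that reduces bound probe by 50%.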

[22] = Bocillin-FL fluorescence polarization competition binding assay, A. baumannii PBP3; conditions: fluorescence polarization competition binding assay using Bocillin-FL; column 3; read-out: 4. baumannii PBP1a Potency
Excerpt: Example I: Experimental Method for Penicillin-Binding Protein Binding Assays with Bocillin-FL Via Fluorescence Polarization
To determine the ability of boronic acid-based test PBP inhibitors to bind Penicillin Binding Proteins (PBPs), Bocillin-FL (fluorescently-labeled penicillin V; ThermoFisher Scientific) was used in a fluorescence polarization (FP) competition binding assay to assess inhibitor binding to PBP2, PBP3 or PBP4 from Escherichia coli (K12), PBP3 from Pseudomonas aeruginosa (PA01), PBP1a, PBP2 and PBP3 from Acinetobacter baumannii (ATCC 19606), and PBP2 from Neiserria gonorrheae (FA19). PBPs were cloned and purified as described previously (E. coli PBPs, King, D. T, et al., ACS Infectious Diseases 2015, 1, 175-184; P. aeruginosa PBP3, Han et. al., PNAS 2010, 107 (51), 22002-22007; A. baumannii PBPs, Penwell et. al., Antimicrob. Agents Chemother. 2015, 59 (3), 1680-1689; N. gonorrhoeae PBP2, Singh et. al., J Biol. Chem. 2019, 294 (38), 14020-14032). To establish assay conditions for competition binding, enzyme titration/saturation binding experiments were initially performed. Bocillin-FL was prepared at 0.2 μM in a buffer comprised of 50 mM Hepes (pH 8.0), 300 mM NaCl and 5% (v/v) glycerol for reactions with E. coli, P. aeruginosa and N. gonorrhoeae PBPs, and 25 mM Tris (pH 8.0), 200 mM NaCl and 10% (v/v) glycerol and 0.005% (v/v) Tween 20 for reactions with A. baumannii PBPs. Saturation binding was performed by mixing 40 μl of PBP solutions ranging in concentrations from 0-24 μM with 40 μl of the 0.2 μM Bocillin-FL solution, in individual wells of a black 384-well microplate. FP was measured immediately upon mixing (Excitation, 490 nm; Emission, 520 nm; g-factor, 0.96), using a Cytation3 (BioTek) microplate reader and measured continuously for up to 120 minutes. […] The competition binding assay (80 μl final volume) was validated using beta-lactams and PBPs at final concentrations of: 1.5 μM, E. coli PBP3; 0.75 μM, P. aeruginosa PBP3; 1 μM A. baumannii PBP1a; 2.5 μM A. baumannii PBP2; 0.2 μM A. baumannii PBP3; and […] N. gonorrhoeae PBP2. Bocillin-FL was at 0.1 μM (0.05 μM with A. baumannii PBP1a) and beta-lactam concentrations ranged from 0-1000 μM. […] Bocillin-FL was added and the FP immediately measured for up to 60 minutes (90 minutes for E. coli PBP2). […] The beta-lactam potency was reported as the concentration of beta-lactam required to reduce the amount of PBP bound-Bocillin-FL by 50% (EC50). […] Binding assays for boronic acid PBP inhibitors were performed in an identical fashion for the respective PBPs

T1 sequence (P0AD68 1-577): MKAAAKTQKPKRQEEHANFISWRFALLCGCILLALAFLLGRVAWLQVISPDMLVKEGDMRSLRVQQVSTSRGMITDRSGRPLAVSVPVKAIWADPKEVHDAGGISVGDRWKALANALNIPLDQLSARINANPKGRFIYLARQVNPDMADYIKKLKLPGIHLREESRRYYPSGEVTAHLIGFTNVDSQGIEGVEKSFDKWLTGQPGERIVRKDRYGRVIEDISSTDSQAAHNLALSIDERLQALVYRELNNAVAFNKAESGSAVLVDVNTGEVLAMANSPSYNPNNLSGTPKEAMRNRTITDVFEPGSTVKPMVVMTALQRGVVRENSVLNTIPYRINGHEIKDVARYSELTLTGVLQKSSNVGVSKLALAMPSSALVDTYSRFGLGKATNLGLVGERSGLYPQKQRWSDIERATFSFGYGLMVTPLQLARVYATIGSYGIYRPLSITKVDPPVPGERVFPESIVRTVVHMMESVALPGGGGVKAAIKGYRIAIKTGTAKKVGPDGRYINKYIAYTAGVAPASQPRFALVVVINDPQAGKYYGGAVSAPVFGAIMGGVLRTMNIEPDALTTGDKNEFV
T2 sequence (G3XD46 whole entry): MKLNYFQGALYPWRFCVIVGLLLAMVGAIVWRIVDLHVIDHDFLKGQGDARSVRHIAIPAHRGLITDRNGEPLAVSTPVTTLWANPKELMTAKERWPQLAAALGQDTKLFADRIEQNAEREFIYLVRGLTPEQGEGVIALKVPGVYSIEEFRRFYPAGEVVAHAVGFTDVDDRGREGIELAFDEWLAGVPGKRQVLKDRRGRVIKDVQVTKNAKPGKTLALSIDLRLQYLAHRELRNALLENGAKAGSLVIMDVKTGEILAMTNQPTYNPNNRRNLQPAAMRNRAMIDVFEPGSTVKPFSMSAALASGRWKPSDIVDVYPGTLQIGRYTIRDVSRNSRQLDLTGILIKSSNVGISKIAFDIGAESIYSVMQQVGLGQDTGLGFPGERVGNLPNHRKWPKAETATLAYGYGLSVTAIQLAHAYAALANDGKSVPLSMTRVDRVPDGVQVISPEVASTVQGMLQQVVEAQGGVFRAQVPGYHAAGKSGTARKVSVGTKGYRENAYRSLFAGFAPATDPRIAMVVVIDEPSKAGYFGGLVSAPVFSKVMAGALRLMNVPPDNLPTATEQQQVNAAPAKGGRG

**Q.** What does the source list for `CC(C)(C)[C@@H](NC(=O)c1c(F)cc(O)c(O)c1Cl)C(=O)N[C@H]1Cc2ccc(F)c(C(=O)O)c2OB1O` [Example 12, (R)-3-((R)-2-(2-chloro-6-fluoro-3,4-dihydroxybenzamido)-3,3-dimethylbutanamido)-7-fluoro-2-hydroxy-3,4-dihydro-2H-benzo[e][1,2]oxaborinine-8-carboxylic acid]?
**A.** MIC [1]: > 64 mg/L; MIC [2]: > 64 mg/L; MIC [3]: > 64 mg/L; MIC [4]: > 64 mg/L; MIC [5]: > 64 mg/L; MIC [6]: > 64 mg/L; MIC [7]: > 64 mg/L; EC50 [8]: 30 to 500 µM

**Q.** What does the source list for `C[C@H]1CN(CCN)C(=O)C(=O)N1C(=O)N[C@@H](C(=O)N[C@H]1Cc2cccc(C(=O)O)c2OB1O)c1ncc(O)cc1F` [Example 14, (R)-3-((R)-2-((S)-4-(2-aminoethyl)-6-methyl-2,3-dioxopiperazine-1-carboxamido)-2-(3-fluoro-5-hydroxypyridin-2-yl)acetamido)-2-hydroxy-3,4-dihydro-2H-benzo[e][1,2]oxaborinine-8-carboxylic acid]?
**A.** MIC [9]: 32 to 64 mg/L (≈ 55.9 to 112 µM); MIC [10]: 0.5 to 1 mg/L (≈ 0.874 to 1.75 µM); MIC [11]: > 128 mg/L; MIC [12]: 0.5 to 1 mg/L (≈ 0.874 to 1.75 µM); MIC [13]: 8 to 16 mg/L (≈ 14 to 28 µM); MIC [14]: 0.5 to 1 mg/L (≈ 0.874 to 1.75 µM); MIC [15]: 8 to 16 mg/L (≈ 14 to 28 µM); MIC [16]: 8 to 16 mg/L (≈ 14 to 28 µM); MIC [17]: 2 to 4 mg/L (≈ 3.49 to 6.99 µM); MIC [18]: 8 to 16 mg/L (≈ 14 to 28 µM); MIC [19]: 32 to 64 mg/L (≈ 55.9 to 112 µM); MIC [20]: > 128 mg/L; P. aeruginosa PBP3 Potency [21]: D (D represents a potency <10 μM); EC50 [8]: < 30 µM; EC50 [22]: < 10 µM
